Measurements reported in ChEMBL document CHEMBL5096185, “Structure-Guided Development of Small-Molecule PRC2 Inhibitors Targeting EZH2-EED Interaction” (J Med Chem, 2021).
Activity calls are given as the source filed them. The rule behind the calls is not given here.

Legend:
[1] = Inhibition of FITC-labeled EZH2 (40 to 63 residues) (unknown origin)-recombinant N-terminal 6His-SUMO tagged human EED (81 to 441 residues) expressed in Escherichia coli BL21 (DE3) cells protein-protein interaction incubated for 2 hrs by fluorescence polarization competition assay
[2] = system: Pfeiffer; experiment: Inhibition of PRC2 in human Pfeiffer cells assessed as reduction in SUZ12 protein level measured after 72 hrs by Western blot analysis; type: cell-based; details: dose 0.6-10 µM, DDE = dose-dependent effect
[3] = system: Pfeiffer; experiment: Induction of cell cycle arrest in human Pfeiffer cells assessed as accumulation of cells in G0/G1 phase at 5 uM incubated for 2 days by PI/RNase staining based analysis (reference value: 52.3%); type: functional; details: time 2 day
[4] = target: T1, Polycomb protein EED (Homo sapiens, UniProt O75530); experiment: Binding affinity to recombinant N-terminal 6His-SUMO tagged human EED (81 to 441 residues) expressed in Escherichia coli BL21 (DE3) cells assessed as binding constant (Kon) measured after 120 sec by SPR-based binding assay
Target sequence in this assay (O75530 2-441 limits assumed): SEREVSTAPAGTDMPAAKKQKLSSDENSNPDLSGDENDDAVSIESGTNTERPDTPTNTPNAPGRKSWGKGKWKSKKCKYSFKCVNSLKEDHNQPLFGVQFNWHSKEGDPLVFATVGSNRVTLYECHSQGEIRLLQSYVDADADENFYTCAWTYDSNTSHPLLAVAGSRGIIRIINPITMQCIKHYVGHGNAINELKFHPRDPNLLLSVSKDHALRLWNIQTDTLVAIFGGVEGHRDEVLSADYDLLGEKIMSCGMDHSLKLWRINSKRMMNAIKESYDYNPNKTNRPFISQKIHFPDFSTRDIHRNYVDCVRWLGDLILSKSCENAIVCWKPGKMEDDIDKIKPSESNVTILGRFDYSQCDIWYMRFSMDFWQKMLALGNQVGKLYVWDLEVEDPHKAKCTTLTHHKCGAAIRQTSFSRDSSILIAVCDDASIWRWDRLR

[5] = system: SUD4; experiment: Induction of cell cycle arrest in human SU-DHL-4 cells assessed as accumulation of cells in G0/G1 phase at 5 uM incubated for 3 days by PI/RNase staining based analysis (reference value: 62.2 %); type: functional; details: time 3 day
[6] = system: Pfeiffer; experiment: Inhibition of PRC2 in human Pfeiffer cells assessed as reduction in H3K27me3 level measured after 72 hrs by Western blot analysis; type: cell-based; details: dose 0.6-10 µM, DDE = dose-dependent effect
[7] = system: SUD4; experiment: Antiproliferative activity against human SU-DHL-4 cells assessed as inhibition of cell growth incubated for 72 hrs by CellTiter-Glo assay; type: functional, cell-based; details: SU-DHL-4, 72 h
[8] = system: Pfeiffer; experiment: Antiproliferative activity against human Pfeiffer cells assessed as inhibition of cell growth incubated for 72 hrs by CellTiter-Glo assay; type: functional, cell-based
[9] = system: Pfeiffer; experiment: Inhibition of PRC2 in human Pfeiffer cells assessed as reduction in EZH2 protein level measured after 72 hrs by Western blot analysis; type: cell-based; details: dose 0.6-10 µM, DDE = dose-dependent effect
[10] = target: T1, Polycomb protein EED; experiment: Binding affinity to recombinant N-terminal 6His-SUMO tagged human EED (81 to 441 residues) expressed in Escherichia coli BL21 (DE3) cells assessed as binding constant (Koff) measured after 120 sec by SPR-based binding assay
Target sequence in this assay (O75530 2-441 limits assumed): as above

[11] = system: Pfeiffer; experiment: Induction of cell cycle arrest in human Pfeiffer cells assessed as decrease of cells in G2/M phase at 5 uM incubated for 2 days by PI/RNase staining based analysis (reference value: 14.9 %); type: functional; design: scale not given: the % may be the effect or the level left; details: time 2 day
[12] = species: Homo sapiens; experiment: Binding affinity to EZH2 (39 to 68 residues) (unknown origin)/recombinant N-terminal 6His-SUMO tagged human EED (81 to 441 residues) expressed in Escherichia coli BL21 (DE3) cells assessed as T1rho signal recovery at 50 to 100 uM by NMR-based binding assay; details: dose 50-100 µM
[13] = system: SUD4; experiment: Induction of cell cycle arrest in human SU-DHL-4 cells assessed as decrease of cells in G2/M phase at 5 uM incubated for 3 days by PI/RNase staining based analysis (reference value: 29.2 %); type: functional; design: scale not given: the % may be the effect or the level left; details: time 3 day
[14] = system: Pfeiffer; experiment: Inhibition of PRC2 in human Pfeiffer cells assessed as reduction in EED protein level measured after 72 hrs by Western blot analysis; type: cell-based; details: dose 0.6-10 µM, DDE = dose-dependent effect
[15] = system: DB; experiment: Antiproliferative activity against human DB cells assessed as inhibition of cell growth incubated for 72 hrs by CellTiter-Glo assay; type: functional, cell-based
[16] = system: SUD4; experiment: Induction of cell cycle arrest in human SU-DHL-4 cells assessed as decrease of cells in G2/M phase at 5 uM incubated for 3 days by PI/RNase staining based analysis (reference value: 8.6 %); type: functional; design: scale not given: the % may be the effect or the level left; details: time 3 day
[17] = system: KARPAS-422; experiment: Antiproliferative activity against human KARPAS-422 cells assessed as inhibition of cell growth incubated for 72 hrs by CellTiter-Glo assay; type: functional, cell-based; details: KARPAS-422, 72 h
[18] = system: Pfeiffer; experiment: Induction of cell cycle arrest in human Pfeiffer cells assessed as decrease of cells in S phase at 5 uM incubated for 2 days by PI/RNase staining based analysis (reference value: 32.8 %); type: functional; design: scale not given: the % may be the effect or the level left; details: time 2 day
[19] = target: T1, Polycomb protein EED; experiment: Binding affinity to recombinant N-terminal 6His-SUMO tagged human EED (81 to 441 residues) expressed in Escherichia coli BL21 (DE3) cells assessed as dissociation constant measured after 240 sec by SPR-based binding assay
Target sequence in this assay (O75530 whole entry, the tested form may be a part): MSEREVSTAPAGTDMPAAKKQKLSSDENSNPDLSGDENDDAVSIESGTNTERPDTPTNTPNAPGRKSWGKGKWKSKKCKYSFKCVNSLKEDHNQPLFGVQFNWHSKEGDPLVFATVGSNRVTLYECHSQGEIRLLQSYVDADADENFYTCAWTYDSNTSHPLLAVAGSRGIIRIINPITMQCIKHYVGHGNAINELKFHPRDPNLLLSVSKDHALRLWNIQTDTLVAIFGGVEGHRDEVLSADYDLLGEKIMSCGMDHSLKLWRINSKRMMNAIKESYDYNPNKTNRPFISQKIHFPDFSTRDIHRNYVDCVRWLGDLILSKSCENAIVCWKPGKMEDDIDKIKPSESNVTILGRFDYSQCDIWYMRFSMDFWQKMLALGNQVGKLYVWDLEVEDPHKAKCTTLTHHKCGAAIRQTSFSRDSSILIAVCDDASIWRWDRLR

| IC50 [1] [µM] | Compound | also measured |
| --- | --- | --- |
| 221 | COc1ccc(CCN2CCC(Nc3nc4ccccc4n3Cc3ccc(N)cc3)CC2)cc1 | – |
| 21.5 | COc1ccc(CCN2CC(Nc3nc4ccccc4n3Cc3ccc(F)cc3)C2)cc1 | – |
| 32.5 | COc1ccc(CNc2ccc(Nc3nc4ccccc4n3Cc3ccc(F)cc3)cn2)cc1 | – |
| 48.6 | COc1ccc(CCN2CCC(Nc3nc4c(N)cccc4n3Cc3ccc(F)cc3)CC2)cc1 | – |
| 66.3 | COc1ccc(CCN2CCC(Nc3nc4ccccc4n3Cc3ccc([N+](=O)[O-])cc3)CC2)cc1 | – |
| 78.7 | COc1ccc(CN[C@H]2CC[C@H](Nc3nc4ccccc4n3Cc3ccc(F)cc3)CC2)cc1 | – |
| 63.6 | COc1ccc(CCN2CCC(Nc3nc4cc(N)ccc4n3Cc3ccc(F)cc3)CC2)cc1 | – |
| 60.8 | COc1ccc(CCN2CCC(Nc3nc4ccccc4n3Cc3ccc(C(F)(F)F)cc3)CC2)cc1 | – |

Further lines, the molecule ahead of its results:

| Compound | IC50 [1] [µM] | also measured |
| --- | --- | --- |
| COc1ccc(CCN2CCC(Nc3nc4ccccc4n3Cc3ccccc3)CC2)cc1 | 131 | – |
| COc1ccc(CCN2CCC(Nc3nc4ccc(N)cc4n3Cc3ccc(F)cc3)CC2)cc1 | 64.7 | – |
| COc1ccc(CCN2CCC(Nc3nc4ccccc4n3Cc3ccc(C)cc3)CC2)cc1 | 153 | – |
| Cc1ccc(CCN2CCC(Nc3nc4ccccc4n3Cc3ccc(F)cc3)CC2)cc1 | 87.6 | – |
| COc1ccc(CCN2CCC(Nc3nc4cccc(N)c4n3Cc3ccc(F)cc3)CC2)cc1 | 73.8 | – |
| COc1ccc(CCN2CCC(Nc3nc4ccccc4n3Cc3ccc(F)cc3)C2)cc1 (centres undefined) | – | inhibition [2]: Dde; Activity [3]: 76.2%; K [4]: 4500 M⁻¹ s⁻¹; Activity [5]: 84%; inhibition [6]: Dde; IC50 [7]: 5.87 µM; IC50 [8]: 3.77 µM; inhibition [9]: Dde; K [10]: 0.0205 s⁻¹; Activity [11]: 6.2%; Activity [12]: Active; Activity [13]: 16%; inhibition [14]: Dde; IC50 [15]: 9.62 µM; Activity [16]: 0%; IC50 [17]: 5.97 µM; Activity [18]: 17.6%; Kd [19]: 4.56 µM |
| COc1ccc(CN[C@H]2CC[C@@H](Nc3nc4ccccc4n3Cc3ccc(F)cc3)CC2)cc1 | > 500 | – |
| COc1ccc(CCN2CCC(Nc3nc4ccccc4n3Cc3ccc(F)c([N+](=O)[O-])c3)CC2)cc1 | 61.6 | – |
| COc1ccc(CCN2CCC(Nc3nc4ccccc4n3Cc3ccc(F)cc3[N+](=O)[O-])CC2)cc1 | 80.1 | – |
| O=[N+]([O-])c1cccc(CCN2CCC(Nc3nc4ccccc4n3Cc3ccc(F)cc3)CC2)c1 | 341 | – |
| Oc1ccccc1CCN1CCC(Nc2nc3ccccc3n2Cc2ccc(F)cc2)CC1 | 175 | – |
| Oc1ccc(CCN2CCC(Nc3nc4ccccc4n3Cc3ccc(F)cc3)CC2)cc1 [DESMETHEYLASTEMIZOLE] | 190 | – |
| Oc1cccc(CCN2CCC(Nc3nc4ccccc4n3Cc3ccc(F)cc3)CC2)c1 | 61.5 | – |
| COc1ccc(CCNCCNc2nc3ccccc3n2Cc2ccc(F)cc2)cc1 | 11.6 | – |
| COc1ccc(CNc2ccc(Nc3nc4ccccc4n3Cc3ccc(F)cc3)cc2)cc1 | 33.8 | – |
| COc1ccc(CCN2CC[C@H](Nc3nc4ccccc4n3Cc3ccc(F)cc3)C2)cc1 | 4.56 | – |
| COc1ccc(CCN2CCC(Nc3nc4ccccc4n3Cc3ccc(F)c(F)c3)CC2)cc1 | 56.5 | – |
| COc1ccc(CCNCCCNc2nc3ccccc3n2Cc2ccc(F)cc2)cc1 | 464 | – |
| COc1ccc(CCN2CCC(Nc3nc4ccccc4n3Cc3ccc(F)cc3)CC2)cc1 [ASTEMIZOLE] | 74.2 | – |
